{"source": "patent US20120214784A1", "about": "“SPIROPIPERIDINE COMPOUNDS AS ORL-1 RECEPTOR ANTAGONISTS” (ELI LILLY AND COMPANY, priority 2009, published 2012)", "key": {"[1]": {"molecular_target": "T1, nociceptin/ORL1 receptors (Rattus norvegicus, UniProt P35370)", "T1 construct": "rats are sacrificed by cervical dislocation and the hypothalamus is removed; from tissue; host or cells: rat hypothalamus (in vivo occupancy)", "test": "In vivo receptor occupancy (LC/MS/MS, RO Tracer) in hypothalamus", "conditions": "oral 3 mg/kg dose after 6 hr."}, "5-HT2C": {"molecular_target": "5-HT2C (Homo sapiens, UniProt P28335)", "sequence (P28335 33-458, species assumed)": "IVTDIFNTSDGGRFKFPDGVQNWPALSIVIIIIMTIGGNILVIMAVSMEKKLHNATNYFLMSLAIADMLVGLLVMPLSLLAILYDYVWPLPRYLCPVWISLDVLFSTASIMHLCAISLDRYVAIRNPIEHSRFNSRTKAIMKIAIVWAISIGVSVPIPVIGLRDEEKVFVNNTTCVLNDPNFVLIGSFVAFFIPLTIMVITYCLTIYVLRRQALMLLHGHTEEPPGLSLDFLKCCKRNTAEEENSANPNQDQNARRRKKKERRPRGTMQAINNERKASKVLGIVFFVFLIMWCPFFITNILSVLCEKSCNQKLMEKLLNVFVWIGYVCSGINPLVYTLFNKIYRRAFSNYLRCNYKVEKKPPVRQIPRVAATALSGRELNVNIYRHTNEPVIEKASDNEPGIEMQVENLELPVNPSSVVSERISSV", "test": "Radioligand binding selectivity", "conditions": "5-HT2C; read-out: Ki", "method": "(§1) Radioligand binding assays are commonly used to determine the affinity (Ki) or potency of a compound to bind to a particular receptor or target protein. A filtration-based [3H]-OFQ/nociceptin receptor binding assay is developed based on previous assay formats (Ardati A, Henningsen R A, Higelin J, Reinscheid R K, Civelli O, Monsma F J Jr. Mol. Pharmacol. 1997 May; 51(5):816-24.) with minor modifications. [3H]-OFQ/nociceptin binding assays are carried out in deep-well 96-well plates. [^3H]OFQ (final assay concentration 0.2 nM) competition studies are carried out with 5-10 μg of membrane protein (isolated from Chinese hamster ovary cells (CHO cells) expressing cloned human ORL1 receptors) in a final assay volume of 0.5 mL of buffer containing 20 mM HEPES, pH 7.4, 5 mM MgCl2, 1 mM EGTA, 100 mM NaCl, 0.1% bovine serum albumin. Samples are incubated for 60 min. at room temperature, which is found to be optimal for competition assays. The assays are terminated by filtration through glass fiber filters (Wallac filtermat A) [pretreated with 0.3% polyethylenimine (Sigma) for 1 hr] on a Tometc cell harvester, and the filters are washed three times with 5 mL of ice-cold 50 mM Tris.HCl, pH 7.4. Filtermats are then dried and imbedded with Meltilex scintillant A and the radioactivity counted in a Wallac Microbeta scintillation counter. Specific binding is determined by displacement with 100 nM unlabeled nociceptin. Curves are plotted as the percent of specific binding and IC50 values are determined using a sigmoidal dose response curve with variable slope. K, values are calculated from the IC50 by the equation of Cheng and Prusoff (Cheng, Y. C., and Prusoff, W. H., Biochem. Pharmacol. 22, 3099-3108 (1973)) where Ki=IC50×(1+D×Kd^−1)^−1. Similarly, Ki for the mu, kappa and delta opioids, serotonin, adrenergic, and muscarinic receptors may be determined using membranes expressing the desired receptor and appropriate corresponding radioligand competitor molecules."}, "5-HT1D": {"molecular_target": "5-HT1D (Homo sapiens, UniProt P28221)", "sequence (P28221 whole entry, species assumed)": "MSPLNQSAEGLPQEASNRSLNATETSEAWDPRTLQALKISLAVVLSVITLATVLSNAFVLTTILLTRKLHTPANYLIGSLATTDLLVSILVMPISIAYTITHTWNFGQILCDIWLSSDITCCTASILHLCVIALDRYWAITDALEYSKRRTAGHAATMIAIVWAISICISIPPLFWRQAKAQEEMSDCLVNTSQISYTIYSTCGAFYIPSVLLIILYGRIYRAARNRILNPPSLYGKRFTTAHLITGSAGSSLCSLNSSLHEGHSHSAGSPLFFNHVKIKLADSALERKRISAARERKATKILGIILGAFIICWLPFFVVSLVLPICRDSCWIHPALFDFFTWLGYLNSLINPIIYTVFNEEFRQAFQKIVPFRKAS", "test": "Radioligand binding selectivity", "conditions": "5-HT1D; read-out: Ki", "method": "as §1"}, "5-HT7": {"molecular_target": "5-HT7 (Homo sapiens, UniProt P34969)", "test": "Radioligand binding selectivity", "conditions": "5-HT7; read-out: Ki", "method": "as §1"}, "5-HT2B": {"molecular_target": "5-HT2B (Homo sapiens, UniProt P41595)", "sequence (P41595 whole entry, species assumed)": "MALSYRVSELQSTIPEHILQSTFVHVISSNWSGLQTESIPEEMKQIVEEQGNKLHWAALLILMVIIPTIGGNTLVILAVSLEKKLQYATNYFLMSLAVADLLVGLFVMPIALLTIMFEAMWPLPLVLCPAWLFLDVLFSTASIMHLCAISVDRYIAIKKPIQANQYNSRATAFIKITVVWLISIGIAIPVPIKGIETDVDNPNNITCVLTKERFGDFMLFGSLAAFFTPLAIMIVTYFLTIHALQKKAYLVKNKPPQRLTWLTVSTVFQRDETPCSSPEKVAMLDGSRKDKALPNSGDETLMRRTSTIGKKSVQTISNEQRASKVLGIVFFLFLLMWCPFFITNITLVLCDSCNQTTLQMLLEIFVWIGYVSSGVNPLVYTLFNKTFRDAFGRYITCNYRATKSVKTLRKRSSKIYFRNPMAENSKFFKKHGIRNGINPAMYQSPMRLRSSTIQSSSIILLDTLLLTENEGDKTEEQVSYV", "test": "Radioligand binding selectivity", "method": "as §1"}, "5-HT1B": {"molecular_target": "5-HT1B (Homo sapiens, UniProt P28222)", "sequence (P28222 whole entry, species assumed)": "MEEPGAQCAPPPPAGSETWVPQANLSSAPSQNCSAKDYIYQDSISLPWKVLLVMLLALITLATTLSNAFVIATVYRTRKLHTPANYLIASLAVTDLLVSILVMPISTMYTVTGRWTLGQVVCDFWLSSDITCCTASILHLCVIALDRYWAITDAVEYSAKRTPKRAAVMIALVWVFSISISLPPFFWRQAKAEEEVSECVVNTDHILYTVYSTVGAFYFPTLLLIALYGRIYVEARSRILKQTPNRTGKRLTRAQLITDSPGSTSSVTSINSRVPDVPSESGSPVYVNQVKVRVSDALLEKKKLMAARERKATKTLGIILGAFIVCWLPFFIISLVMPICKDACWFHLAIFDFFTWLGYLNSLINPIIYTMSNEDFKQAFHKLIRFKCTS", "test": "Radioligand binding selectivity", "conditions": "5-HT1B; read-out: Ki", "method": "as §1"}, "5-HT2A": {"molecular_target": "5-HT2A (Homo sapiens, UniProt P28223)", "test": "Radioligand binding selectivity", "conditions": "5-HT2A; read-out: Ki", "method": "as §1"}, "5-HT4": {"molecular_target": "5-HT4 (Homo sapiens, UniProt Q13639)", "test": "Radioligand binding selectivity", "conditions": "5-HT4; read-out: Ki", "method": "as §1"}, "5-HT5": {"molecular_target": "5-HT5 (Homo sapiens, UniProt P47898)", "sequence (P47898 whole entry, species assumed)": "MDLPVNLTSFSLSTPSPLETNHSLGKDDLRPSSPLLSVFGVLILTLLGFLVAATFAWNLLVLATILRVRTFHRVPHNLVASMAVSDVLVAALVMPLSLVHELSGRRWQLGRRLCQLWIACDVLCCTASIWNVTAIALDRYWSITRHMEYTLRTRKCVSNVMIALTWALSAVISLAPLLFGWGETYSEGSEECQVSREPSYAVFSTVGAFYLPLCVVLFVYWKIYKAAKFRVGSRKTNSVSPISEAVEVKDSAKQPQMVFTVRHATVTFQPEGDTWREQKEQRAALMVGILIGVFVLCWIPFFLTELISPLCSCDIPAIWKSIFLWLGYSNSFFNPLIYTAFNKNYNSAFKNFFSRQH", "test": "Radioligand binding selectivity", "conditions": "5-HT5; read-out: Ki", "method": "as §1"}, "5-HT1E": {"molecular_target": "5-HT1E (Homo sapiens, UniProt P28566)", "sequence (P28566 whole entry, species assumed)": "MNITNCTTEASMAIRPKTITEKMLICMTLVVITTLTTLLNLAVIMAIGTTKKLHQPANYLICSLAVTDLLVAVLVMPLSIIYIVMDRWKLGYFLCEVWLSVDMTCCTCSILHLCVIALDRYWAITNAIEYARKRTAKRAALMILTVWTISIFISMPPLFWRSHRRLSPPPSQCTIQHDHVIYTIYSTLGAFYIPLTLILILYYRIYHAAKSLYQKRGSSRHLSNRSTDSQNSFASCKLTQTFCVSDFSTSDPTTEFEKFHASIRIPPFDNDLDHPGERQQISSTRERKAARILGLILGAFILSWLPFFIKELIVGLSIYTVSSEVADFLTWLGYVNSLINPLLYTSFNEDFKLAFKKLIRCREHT", "test": "Radioligand binding selectivity", "conditions": "5-HT1E; read-out: Ki", "method": "as §1"}, "5-HT6": {"molecular_target": "5-HT6 (Homo sapiens, UniProt P50406)", "sequence (P50406 whole entry, species assumed)": "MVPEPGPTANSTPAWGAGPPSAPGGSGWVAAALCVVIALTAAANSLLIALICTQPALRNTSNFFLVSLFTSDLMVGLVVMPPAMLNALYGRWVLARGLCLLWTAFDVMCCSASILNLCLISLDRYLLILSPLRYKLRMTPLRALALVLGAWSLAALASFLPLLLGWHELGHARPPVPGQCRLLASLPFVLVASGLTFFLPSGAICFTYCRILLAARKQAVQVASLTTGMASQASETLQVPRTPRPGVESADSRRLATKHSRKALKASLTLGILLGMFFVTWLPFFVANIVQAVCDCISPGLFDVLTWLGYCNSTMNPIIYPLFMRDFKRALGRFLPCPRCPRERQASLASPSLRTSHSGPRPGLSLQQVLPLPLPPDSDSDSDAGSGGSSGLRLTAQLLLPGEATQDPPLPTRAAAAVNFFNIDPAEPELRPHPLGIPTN", "test": "Radioligand binding selectivity", "conditions": "5-HT6; read-out: Ki", "method": "as §1"}, "5-HT1F": {"molecular_target": "5-HT1F (Homo sapiens, UniProt P30939)", "sequence (P30939 whole entry, species assumed)": "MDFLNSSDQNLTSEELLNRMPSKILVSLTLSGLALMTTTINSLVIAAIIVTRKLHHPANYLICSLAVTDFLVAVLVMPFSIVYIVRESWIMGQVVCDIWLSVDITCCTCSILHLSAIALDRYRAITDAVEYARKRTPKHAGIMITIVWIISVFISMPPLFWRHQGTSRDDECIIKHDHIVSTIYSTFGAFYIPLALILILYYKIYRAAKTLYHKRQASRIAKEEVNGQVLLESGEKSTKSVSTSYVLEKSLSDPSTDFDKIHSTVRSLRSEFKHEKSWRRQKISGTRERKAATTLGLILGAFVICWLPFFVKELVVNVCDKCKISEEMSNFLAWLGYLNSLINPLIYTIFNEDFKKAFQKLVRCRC", "test": "Radioligand binding selectivity", "method": "as §1"}, "[2]": {"tested_on": "wild type and ORL knockout mice", "test": "Blockade of fasting-induced hyperphagia in mice", "format": "in vivo, mouse", "conditions": "wild type mice, oral gavage 30 min. prior to food, food intake 1 hr", "source_text": "Blockade of fasting-induced hyperphagia in rats is an accepted model for hyperphagic eating disorders. […] Mice are individually housed a minimum of 3 days prior to the onset of testing to eliminate any effects of stress due to the change from group to individual housing. Three mice/genotype are randomly assigned to each treatment group on the test day. Pre-fast body weight measurements are taken, and food is then removed from cages overnight. Mice are fasted for approximately 15 hr. The next morning, the mice are given one of three doses of drug or vehicle via oral gavage 30 min. prior to gaining access to food. Drugs are dissolved in 20% Captisol dissolved in 25 mM phosphate buffer, pH 2.0. Measurements of body weight are taken immediately prior to drug treatment or 24 hr. after access to food is restored. […] Measurements of food intake are recorded 1 hr following access to food, as indicated, by weight of food remaining at 1 hr. It should be noted that food intake measured is during the light phase, a time during which mice are typically at rest and not normally eating. Following initial testing, mice are rested for 1 week with access to unlimited chow."}, "[3]": {"molecular_target": "T2, cloned human ORL1 receptors (Homo sapiens, UniProt P41146)", "T2 construct": "expressed in transfected cells; host or cells: CHO cells (membranes)", "T2 sequence (P41146 whole entry)": "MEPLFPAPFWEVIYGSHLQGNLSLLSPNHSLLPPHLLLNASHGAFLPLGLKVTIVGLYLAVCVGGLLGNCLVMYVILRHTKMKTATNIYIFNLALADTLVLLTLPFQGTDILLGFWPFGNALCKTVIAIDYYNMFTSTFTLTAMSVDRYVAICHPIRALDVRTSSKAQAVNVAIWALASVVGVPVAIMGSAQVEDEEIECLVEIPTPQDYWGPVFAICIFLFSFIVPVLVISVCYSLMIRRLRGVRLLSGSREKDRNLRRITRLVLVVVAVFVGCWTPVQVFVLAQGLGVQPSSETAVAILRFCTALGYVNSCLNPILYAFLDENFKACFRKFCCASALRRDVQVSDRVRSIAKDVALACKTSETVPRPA", "test": "[3H]-OFQ/nociceptin receptor binding assay", "method": "as §1"}, "[4]": {"molecular_target": "T3, cloned human ORL1/nociceptin receptors (Homo sapiens, UniProt P41146)", "T3 construct": "expressed in transfected cells", "T3 sequence (P41146 whole entry)": "as above", "test": "Functional blockade of agonist-mediated G-protein activation, GTP-γ-[35S] binding", "format": "biochemical", "source_text": "Agonist-mediated stimulation of G-protein coupled receptors results in the activation of membrane associated Gαβγ-protein heterotrimer complexes, and represents the first step in the transduction of extracellular signals to modification of intracellular pathways. The first step in activation of receptor-mediated activation of Gαβγ-proteins heterotrimer is the exchange of Gα subunit bound guanosine diphoshpate (GDP) for guanosine triphosphate (GTP). The binding of GTP to the Gα subunit causes dissociation of the heterotrimer subunits, Gβ and Gγ, resulting in the modulation of several intracellular signaling cascades. Measurement of receptor-mediated G-protein activation can be measured using the non-hydrolyzable radiolabeled analog of GTP, GTP-γ-[35S]. Utilizing this methodology, antagonist affinity (Kb) is measured in membranes expressing cloned human ORL1/nociceptin receptors using a GTP-γ-[35S] binding assay according to previously described protocols with minor modifications (DeLapp et al., J Pharmacol Exp Ther. 1999 May; 289(2):946-55; Ozaki et al., Eur J Pharmacol. 2000 Aug. 18; 402(1-2):45-53). Assays are conducted in a 200-μl volume with the following buffer composition: 100 mM NaCl, 20 mM HEPES, 5 mM MgCl2, 1 mM EDTA, 0.1% BSA, 3 μM GDP, 0.5 nM [^35S]GTPγS. ORL1 receptor membrane suspension is added at a concentration of 20 μg protein per well and receptor stimulation is achieved using 300 nM nociceptin/OFQ. Wheat germ agglutinin coated SPA beads (Amersham, Arlington Hts., Ill.) are added at 1 mg per well to detect membrane-bound [^35S]GTPγS. Plates are sealed and incubated for 2 hr. at room temperature. Plates are then placed at 4° C. overnight to allow the SPA beads to settle and then counted in a Wallac Microbeta. Specific [^35S]GTPγS binding is determined as the difference in CPM observed in the absence and presence of 10 μM unlabeled GTPγS. Data are plotted as the percent of specific [^35S]GTPγS bound. Curves are plotted as the percent of specific binding and IC50 values are determined using a sigmoidal dose response curve with variable slope. Antagonist affinity (Kb) is estimated according to DeLapp et al., 1999 using a modification of the equation of Cheng and Prusoff (1973) where Kb=IC50×(1+D×EC50^−1)^−1."}, "[5]": {"molecular_target": "human ERG (hERG) K+ channel (Homo sapiens, UniProt Q12809)", "sequence (Q12809 whole entry)": "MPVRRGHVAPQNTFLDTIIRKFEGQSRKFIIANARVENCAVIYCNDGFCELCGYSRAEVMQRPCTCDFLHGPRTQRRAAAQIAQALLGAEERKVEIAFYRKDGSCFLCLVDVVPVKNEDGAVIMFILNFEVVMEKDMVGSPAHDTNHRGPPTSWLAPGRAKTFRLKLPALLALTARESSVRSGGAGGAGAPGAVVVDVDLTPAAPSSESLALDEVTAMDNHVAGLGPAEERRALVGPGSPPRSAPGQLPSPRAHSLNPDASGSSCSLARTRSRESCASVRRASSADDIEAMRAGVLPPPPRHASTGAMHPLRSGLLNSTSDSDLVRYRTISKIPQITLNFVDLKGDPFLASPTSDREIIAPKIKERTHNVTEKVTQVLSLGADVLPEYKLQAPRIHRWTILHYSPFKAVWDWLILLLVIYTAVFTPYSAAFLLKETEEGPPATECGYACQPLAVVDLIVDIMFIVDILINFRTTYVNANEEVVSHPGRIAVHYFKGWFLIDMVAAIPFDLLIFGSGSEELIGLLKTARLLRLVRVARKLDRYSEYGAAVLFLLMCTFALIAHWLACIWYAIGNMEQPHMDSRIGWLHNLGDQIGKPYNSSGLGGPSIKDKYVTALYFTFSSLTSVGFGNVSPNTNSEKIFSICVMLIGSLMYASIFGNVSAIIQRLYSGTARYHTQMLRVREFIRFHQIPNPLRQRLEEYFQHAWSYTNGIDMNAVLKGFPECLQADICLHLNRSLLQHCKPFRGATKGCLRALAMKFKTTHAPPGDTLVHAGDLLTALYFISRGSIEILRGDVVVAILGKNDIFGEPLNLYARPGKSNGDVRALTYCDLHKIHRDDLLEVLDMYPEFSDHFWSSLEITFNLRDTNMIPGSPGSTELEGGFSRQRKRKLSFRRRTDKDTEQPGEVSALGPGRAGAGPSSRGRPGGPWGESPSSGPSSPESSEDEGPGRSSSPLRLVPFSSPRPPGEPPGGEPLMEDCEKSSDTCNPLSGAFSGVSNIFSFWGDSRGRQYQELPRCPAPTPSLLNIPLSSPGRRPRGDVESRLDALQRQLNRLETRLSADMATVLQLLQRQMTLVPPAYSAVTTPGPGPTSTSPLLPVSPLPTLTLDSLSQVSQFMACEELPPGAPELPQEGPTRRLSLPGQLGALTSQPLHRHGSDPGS", "test": "hERG channel [3H]astemizole binding assay", "method": "Blockade of K^+-channel conductance in the heart is associated with cardiotoxicity in the form of QT-wave prolongation. The affinity (Ki) of the exemplified nociceptin receptor antagonists for the human ERG (hERG) K^+ channel is determined in HEK293 cells expressing cloned hERG using the hERG channel antagonist radioligand [3H]astemizole (2 nM final assay concentration) according to well known procedures (see for example Finlayson K, et al. (Eur J Pharmacol. 412(3):203-12, 2001) [3H]Astemizole binding assays are performed at the contract research company Cerep (Paris France) according to standard procedures."}}}
{"smiles": "OCc1nn(-c2c(F)cccc2F)cc1CN1CCC2(CC1)OCC(F)(F)c1cc(Cl)sc12", "note": "[Example 50, [4-[(2-Chloro-4,4-difluoro-spiro[5H-thieno[2,3-c]pyran-7,4′-piperidine]-1′-yl)methyl]-1-(2,6-difluorophenyl)pyrazol-3-yl]methanol]", "values": [{"measurement": "receptor occupancy at 3 mg/kg", "setting": "[1]", "result": 81, "unit": "%"}, {"measurement": "Ki", "setting": "5-HT2C", "result": 4.75, "unit": "µM"}, {"measurement": "Ki", "setting": "5-HT1D", "result": "> 8.55", "unit": "µM"}, {"measurement": "Ki", "setting": "5-HT7", "result": "> 3.98", "unit": "µM"}, {"measurement": "Ki", "setting": "5-HT2B", "result": 0.0429, "unit": "µM"}, {"measurement": "Ki", "setting": "5-HT1B", "result": "> 3.58", "unit": "µM"}, {"measurement": "Ki", "setting": "5-HT2A", "result": "> 5", "unit": "µM"}, {"measurement": "Ki", "setting": "5-HT4", "result": "> 4.12", "unit": "µM"}, {"measurement": "Ki", "setting": "5-HT5", "result": "> 9.09", "unit": "µM"}, {"measurement": "Ki", "setting": "5-HT1E", "result": "> 5.37", "unit": "µM"}, {"measurement": "Ki", "setting": "5-HT6", "result": "> 5.83", "unit": "µM"}, {"measurement": "Ki", "setting": "5-HT1F", "result": "> 8.52", "unit": "µM"}, {"measurement": "fasting-induced hyperphagia", "setting": "[2]", "result": "substantially block fasting-induced hyperphagia"}, {"measurement": "Ki", "setting": "[3]", "result": 0.00089, "unit": "µM"}, {"measurement": "Kb", "setting": "[4]", "result": 0.00054, "unit": "µM"}, {"measurement": "Ki", "setting": "[5]", "result": 7, "unit": "µM"}]}
